Measurements published in patent US11325940B2, “Certain chemical entities, compositions, and methods” (NeuPharma, Inc., priority 2012, dated 2022).
Values after ≈ are worked out from the molar mass of the structure shown.

Key:
A549 cells = experiment: Inhibition of cancer cell growth, MTT assay; assay type: cell-based; settings: Homo sapiens; A549 cells, 72 h compound exposure, MTT; read-out: IC50
Protocol: Inhibition of cell growth by compounds was measured using MTT assay (Mosmann, T., Journal of Immunological Methods, 1983, 65, 55-63). Tumor cell lines were purchased from ATCC (American Type Culture Collection, Manassas, Va.). All cell lines were maintained in RPMI 1640 (Hyclone) supplemented with 10% fetal bovine serum (FBS, Hyclone), glutamine (2 mM, Hyclone), and antibiotics (penicillin 100 U/mL and streptomycin 50 μg/mL) at 37° C. in a humidified atmosphere of 5% CO2 in air. Taxol (as a positive control, Sigma) and compounds were dissolved in DMSO (Sigma), and the final concentration of DMSO in the medium was 1%. Tumor cells were plated in 96-well plates at densities of about 4000 cells/well of a 96-well plate and allowed to adhere/grow for 24 h. They were then treated with various concentrations of drug for 72 h. 3-(4,5-Dimethylthiazol-2-yl)-2,5-diphenyltetrazolium bromide (MTT, Sigma) was used to determine the number of viable cells at the time of compound addition and the number of cells remaining after 72 h compound exposure. The number of cells remaining after 72 h was compared to the number of viable cells at the time of compound addition by measuring the absorbance at 570 nm, allowing for the calculation of growth inhibition.
All concentrations of compounds were tested in triplicate and controls were averaged over 4 wells. IC50 was calculated by plotting the concentration of compound vs the percentage of inhibition in treated wells using GraphPad Prism 5. […] The scale utilized in Table 3 is as follows: ++++ less than 20 nM; +++ between 20 nM and 100 nM; ++ between 100 nM and 1000 nM; and + greater than 1000 nM.

[1] = Equilibrium solubility in aqueous buffer (HPLC UV); assay type: physicochemical; settings: aqueous buffer, thermodynamic from solid; equilibrium solubility, NaOAc/AcOH buffer (100 mM, pH 5.0), rt, 24 h; read-out: Solubility
Protocol: The equilibrium solubility of compounds was measured in aqueous buffer. Excess amount of solid compound was added into buffer solution and the sample was briefly sonicated and then shaken at rt for 24 h. The sample was filtered and the concentration was analyzed by HPLC UV. A standard solution at 0.2 mg/mL was prepared in methanol or acetonitrile for each compound and used as an external standard for quantification. The scale utilized in Tables 2 is as follows: +++ greater than 1 mg/mL; ++ between 1 and 0.1 mg/mL; and + less than 0.1 mg/mL.

Structure (SMILES) | IC50 (A549 cells) [nM] | solubility at 24 h [1] [µg/mL]
C[C@]12CC[C@H](NC(=O)N3CCOCC3)C[C@H]1CC[C@@H]1[C@@H]2CC[C@]2(C)[C@@H](c3ccc(=O)oc3)CC[C@]12O [Compound C02, N-((3S,5R,8R,9S,10S,13R,14S,17R)-14-hydroxy-10,13-dimethyl-17-(2-oxo-2H-pyran-5-yl)hexadecahydro-1H-cyclopenta[a]phenanthren-3-yl)morpholine-4-carboxamide] | < 20 | < 100
C[C@]12CC[C@H](NC(=O)N3CCNCC3)C[C@H]1CC[C@@H]1[C@@H]2CC[C@]2(C)[C@@H](c3ccc(=O)oc3)CC[C@]12O [Compound C04, N-((3S,5R,8R,9S,10S,13R,14S,17R)-14-hydroxy-10,13-dimethyl-17-(2-oxo-2H-pyran-5-yl)hexadecahydro-1H-cyclopenta[a]phenanthren-3-yl)piperazine-1-carboxamide] | < 20 | > 1000
C[C@]12CC[C@H](NC(=O)NCCN)C[C@H]1CC[C@@H]1[C@@H]2CC[C@]2(C)[C@@H](c3ccc(=O)oc3)CC[C@]12O [Compound C10, 1-(2-aminoethyl)-3-((3S,5R,8R,9S,10S,13R,14S,17R)-14-hydroxy-10,13-dimethyl-17-(2-oxo-2H-pyran-5-yl)hexadecahydro-1H-cyclopenta[a]phenanthren-3-yl)urea] | < 20 | > 1000
C[C@]12CC[C@H](NC(=O)CN)C[C@H]1CC[C@@H]1[C@@H]2CC[C@]2(C)[C@@H](c3ccc(=O)oc3)CC[C@]12O [Compound C12, 2-amino-N-((3S,5R,8R,9S,10S,13R,14S,17R)-14-hydroxy-10,13-dimethyl-17-(2-oxo-2H-pyran-5-yl)hexadecahydro-1H-cyclopenta[a]phenanthren-3-yl)acetamide] | < 20 | > 1000
C[C@]12CCC(NCCN3CCOCC3)C[C@H]1CC[C@@H]1[C@@H]2CC[C@]2(C)[C@@H](c3ccc(=O)oc3)CC[C@]12O (stereo partly drawn) [Compound C18, 5-((5R,8R,9S,10S,13R,14S,17R)-14-hydroxy-10,13-dimethyl-3-((2-morpholinoethyl)amino)hexadecahydro-1H-cyclopenta[a]phenanthren-17-yl)-2H-pyran-2-one] | 100 to 1000 | > 1000
C[C@]12CCC(N3CCNC(=O)C3)C[C@H]1CC[C@@H]1[C@@H]2CC[C@]2(C)[C@@H](c3ccc(=O)oc3)CC[C@]12O (stereo partly drawn) [Compound C19, 4-((5R,8R,9S,10S,13R,14S,17R)-14-hydroxy-10,13-dimethyl-17-(2-oxo-2H-pyran-5-yl)hexadecahydro-1H-cyclopenta[a]phenanthren-3-yl)piperazin-2-one] | 20 to 100 | 100 to 1000 (≈ 213 to 2130 µM)
C[C@]12CCC(N3CCCC3)C[C@H]1CC[C@@H]1[C@@H]2CC[C@]2(C)[C@@H](c3ccc(=O)oc3)CC[C@]12O (stereo partly drawn) [Compound C20, 5-((5R,8R,9S,10S,13R,14S,17R)-14-hydroxy-10,13-dimethyl-3-(pyrrolidin-1-yl)hexadecahydro-1H-cyclopenta[a]phenanthren-17-yl)-2H-pyran-2-one] | < 20 | > 1000
CC(C)[C@@H](N)C(=O)N(C)C1CC[C@@]2(C)[C@H](CC[C@@H]3[C@@H]2CC[C@]2(C)[C@@H](c4ccc(=O)oc4)CC[C@]32O)C1 (stereo partly drawn) [Compound C22, (2R)-2-amino-N-((5R,8R,9S,10S,13R,14S,17R)-14-hydroxy-10,13-dimethyl-17-(2-oxo-2H-pyran-5-yl)hexadecahydro-1H-cyclopenta[a]phenanthren-3-yl)-N,3-dimethylbutanamide] | 20 to 100 | > 1000
